Test results published in patent EP0123700A1, “Substituted picolinic acids, processes for their preparation, their use, and pharmaceutical preparations containing them” (Byk Gulden Lomberg Chemische Fabrik GmbH, priority 1983, dated 1984).
Several values for one entry are separate records, joined by “and”; a condition that tells them apart may be missing. Equal values may be shown once.

System: genetisch hypertonen Ratten
Assay: Antihypertensive effect: systolic blood pressure (tail cuff) in conscious genetically hypertensive rats, oral dosing once daily on four consecutive days
Type: in vivo, Ratten (Stamm SHR/N/Ibm/Bm)
Settings: for Th.W. (Therapeutische Wirksamkeit): mean of quotient over the doses of Table I
Method: Zur Bestimmung der äntihypertensiven Wirkung werden die unten aufgeführten Verbindungen in den angegebenen Dosen an vier aufeinander folgenden Tagen an je 6 Ratten (Stamm SHR/N/Ibm/Bm, ♂, 250-350 g) mit genetisch bedingtem Hochdruck (RR > 180 mmHg) täglich einmal mittels Schlundsonde verabfolgt. Die Messung des Blutdrucks erfolgt jeweils 2, 6 und gegebenenfalls 24 Stunden nach Substanzgabe.
Die Blutdruckmessung wird in einer Wärmekammer bei 36°C vorgenommen, um eine bessere Durchblutung der Schwanzarterie zu erreichen. Hierzu werden die Tiere in perforierte Lochblechkäfige verbracht und 20 - 40 Min. nach Beginn der Aufwärmung gemessen. Zur Messung des systolischen arteriellen Drucks wird eine ringförmige Manschette mit aufblasbarer Gummimembran zur Unterbindung der Durchblutung und ein ringförmiger Piezökristallaufnehmer zur Erfassung der Pulswellen auf den Schwanz aufgeschoben. Nach erfolgter Unterbindung des Blutstroms in der Schwanzarterie wird der Manschettendruck kontinuierlich reduziert. […] Pulssignale und Druckverlauf werden zur Auswertung graphisch aufgezeichnet.
Zur Gewöhnung an den Meßvorgang werden die Tiere vor Substanzprüfung 14 Tage traniniert. In der zweiten Trainingswoche werden Blutdruck-Vorwerte erhoben. Tiergruppen, die Substanz erhälten, werden gegen eine Kontrollgruppe geprüft.

CCCCc1ccc(C(=O)OCCCN(C)C)nc1 [lfd. Nr. 3, 5-n-Butylpyridin-2-carbonsäure-(3-dimethylaminopropyl)-ester]
BP (%-Änderungen) (20,0 mg/kg p.o., day 1, 2h, listed as 2): -5% and -8%
BP (%-Änderungen) (20,0 mg/kg p.o., day 1, 6h, listed as 2): -10% and -13%
BP (%-Änderungen) (20,0 mg/kg p.o., day 1, 24h): 0%
BP (%-Änderungen) (20,0 mg/kg p.o., day 2, 6h, listed as 2): -6% and -9%
BP (%-Änderungen) (20,0 mg/kg p.o., day 3, 6h, listed as 2): -4% and -7%
BP (%-Änderungen) (20,0 mg/kg p.o., day 3, 24h): -2%
BP (%-Änderungen) (20,0 mg/kg p.o., day 4, 2h, listed as 2): -5% and -8%
BP (%-Änderungen) (20,0 mg/kg p.o., day 4, 6h, listed as 2): -7% and -10%
Th.I. Fusarsäure = 1 (day 1 (2h, 6h and 24h Th.W. averaged), normalised to Th.W. Fusarsäure = 1): 4,3
Th.W. (Therapeutische Wirksamkeit) (day 1, 2h): -5,6 %-Änderung BP / µmol/kg x 100
Th.W. (Therapeutische Wirksamkeit) (day 1, 6h): -10,3 %-Änderung BP / µmol/kg x 100
Th.W. (Therapeutische Wirksamkeit) (day 1, 24h): 1,3 %-Änderung BP / µmol/kg x 100
Th.W. (Therapeutische Wirksamkeit) (day 2, 6h): -6,7 %-Änderung BP / µmol/kg x 100
Th.I. Fusarsäure = 1 (day 2, normalised to Th.W. Fusarsäure = 1): 5,2
Th.I. Fusarsäure = 1 (day 3 (6h and 24h Th.W. averaged), normalised to Th.W. Fusarsäure = 1): 2,5
Th.W. (Therapeutische Wirksamkeit) (day 3, 6h): -4,5 %-Änderung BP / µmol/kg x 100
Th.W. (Therapeutische Wirksamkeit) (day 3, 24h): 0,4 %-Änderung BP / µmol/kg x 100
Th.I. Fusarsäure = 1 (day 4 (2h and 6h Th.W. averaged), normalised to Th.W. Fusarsäure = 1): 1,1
Th.W. (Therapeutische Wirksamkeit) (day 4, 2h): -5,6 %-Änderung BP / µmol/kg x 100
Th.W. (Therapeutische Wirksamkeit) (day 4, 6h): -7,6 %-Änderung BP / µmol/kg x 100

CN(C)CCCNC(=O)c1ccc(-c2ccccc2)cn1 [lfd. Nr. 6, 5-Phenylpyridin-2-carbonsäure-(3-dimethylaminopropyl)-amid]
BP (%-Änderungen) (6,4 mg/kg p.o., day 1, 2h, listed as 11): +2%
BP (%-Änderungen) (6,4 mg/kg p.o., day 1, 6h, listed as 11): -1%
BP (%-Änderungen) (6,4 mg/kg p.o., day 1, 24h, listed as 11): +10%
BP (%-Änderungen) (6,4 mg/kg p.o., day 2, 6h, listed as 11): -14%
BP (%-Änderungen) (6,4 mg/kg p.o., day 3, 6h, listed as 11): -10%
BP (%-Änderungen) (6,4 mg/kg p.o., day 3, 24h, listed as 11): +4%
BP (%-Änderungen) (6,4 mg/kg p.o., day 4, 6h, listed as 11): -10%
BP (%-Änderungen) (25,6 mg/kg p.o., day 1, 2h, listed as 11): -7%
BP (%-Änderungen) (25,6 mg/kg p.o., day 1, 6h, listed as 11): -9%
BP (%-Änderungen) (25,6 mg/kg p.o., day 1, 24h): +4%
BP (%-Änderungen) (25,6 mg/kg p.o., day 2, 6h, listed as 11): +3%
BP (%-Änderungen) (25,6 mg/kg p.o., day 3, 6h, listed as 11): -15%
BP (%-Änderungen) (25,6 mg/kg p.o., day 3, 24h, listed as 11): -10%
Th.I. Fusarsäure = 1 (day 1 (2h, 6h and 24h Th.W. averaged), normalised to Th.W. Fusarsäure = 1, listed as 11): -25,7
Th.W. (Therapeutische Wirksamkeit) (day 1, 2h): 0,9 %-Änderung BP / µmol/kg x 100
Th.W. (Therapeutische Wirksamkeit) (day 1, 6h): -11,8 %-Änderung BP / µmol/kg x 100
Th.W. (Therapeutische Wirksamkeit) (day 1, 24h): 39,9 %-Änderung BP / µmol/kg x 100
Th.W. (Therapeutische Wirksamkeit) (day 2, 6h): -48,0 %-Änderung BP / µmol/kg x 100
Th.I. Fusarsäure = 1 (day 2, normalised to Th.W. Fusarsäure = 1, listed as 11): 36,9
Th.I. Fusarsäure = 1 (day 3 (6h and 24h Th.W. averaged), normalised to Th.W. Fusarsäure = 1, listed as 11): 8,0
Th.W. (Therapeutische Wirksamkeit) (day 3, 6h): -49,9 %-Änderung BP / µmol/kg x 100
Th.W. (Therapeutische Wirksamkeit) (day 3, 24h): 23,6 %-Änderung BP / µmol/kg x 100
Th.I. Fusarsäure = 1 (day 4 (2h and 6h Th.W. averaged), normalised to Th.W. Fusarsäure = 1, listed as 11): 5,2
Th.W. (Therapeutische Wirksamkeit) (day 4, 6h): -36,2 %-Änderung BP / µmol/kg x 100
